The text below walks through data of patent publication US20250176550A1, “HERBICIDE COMPOSITION OF URACIL COMPOUND CONTAINING CARBOXYLATE FRAGMENT AND THE USE THEREOF” (Jiangsu Flag Chemical Industry Co., Ltd., priority 2022, published 2025).

Structures are written as SMILES.

Assay type in all cases: in vivo
Test [1] has as its system eclipta prostrata. The experiment in a line: Indoor virulence and combined effect, greenhouse pot test, pre-emergence soil spray treatment, fresh weight inhibition. The protocol: (§1) The active ingredients A and B are respectively screened and an indoor combined effect of the composition on weeds was evaluated by an indoor test and a field test, to determine a combined effect of the composition on weeds.
(§2) Quantitative seeds of Poaceae weeds (echinochloa crusgalli, Digitaria sanguinalis, setaria viridis, Eleusine indica, avena fatua, alopecurus japonicus, alopecurus aequalis, Lolium multiflorum) and broadleaf weeds (eclipta prostrata, rorippa dubia, Abutilon theophrasti, conyza canadensis, veronica persica, myosoton aquaticum, polygonum lapathifolium, galium aparine var. tenerum, alisma plantago-aquatica, geranium carolinianum) were sown in paper cup containing nutrient soil with a diameter of 7 cm, covered with soil for 1 cm after sowing. After pressing and watering, they were cultured in a greenhouse according to a conventional method. Poaceae weeds grew to 3˜4 leaf stage, broad-leaved weeds grew to 4˜6 leaf stage, spraying treatment to both stem and leaf was performed; and pre-seedling soil spray treatment was performed 24 hours after sowing. Following an experimental design dosage, a WP-2000 walking spray tower (spindle speed 96 mm/r, spray height 200 mm, effective spray amplitude of nozzle 350 mm, nozzle flow rate 390 mL/min, nozzle walking speed 210 mm/s) was used for the spray treatment. The experiment was repeated three times. After being treated, a sample material is placed in an operation hall, and after the drug solution is naturally dried out, the sample material is placed in a greenhouse and managed according to the conventional method. A reaction of weeds to the drug agent is observed and recorded, and a regularly visual check of a control effect of the drug agent on weeds was performed after the treatment.
(§3) All of original drugs were using acetone as a solvent, being diluted with 0.1 wt % emulsifier of Tween-80 aqueous solution, and being diluted right before using.
(§4) When determining a ratio or content of the active ingredient A and the active ingredient B, it should be measured from characteristics of action of both agents and virulence thereof, as well as the main purpose of use of a formula shall also be considered in. In the present study, on a basis of previous pre-test, the dosages of the active ingredient A and the active ingredient B were set, when being used alone and mixed, as shown in the following table. Water containing no agent, but containing the same solvent and emulsifier was used as a blank control.
(§5) Repeat 4 times for each treatment, 3 pots per treatment each time and 30 weed seeds were sown for each pot.
(§6) Adopting an absolute number survey method, using a blade to cut the whole seedling of surviving weed along soil surface, and weighting the fresh weight of the weed with an analytical balance. For weeds that had died, counting the fresh weight as zero.
(§7) Survey period and frequency: 21 days after the treatment, total 1 investigation.
(§8) The theoretical fresh weight inhibition rate (E0-Expected Efficacy=[…]) of each treatment combination was calculated by Gowing method, and then compared with the measured inhibition rate (E-Observed Efficacy) to evaluate the combined effect type of both on weeds. When E-E0 value was greater than 10%, it was counted as a synergistic effect, less than −10%, it was counted as an antagonistic effect, and between −10%˜10%, it was counted as an additive effect. According to a plurality of factors including an actual control efficacy, a herbicide characteristic, a formula balance and other factors to determine the best ratio. In the formula, X is the fresh weight inhibition rate of the ingredient A at a dosage of P; Y is the fresh weight inhibition rate of the active ingredient B at a dosage of Q.
(§9) The statistical results are shown in Table 1 to Table 44 below, except for those marked clearly as “pre-emergence treatment”, all others are “post-emergence treatment”. […]

The test system of a further test is digitaria sanguinalis. Described as above. The protocol:
as §1, §2, §3, §4, §5, §6, §7, §8, §9

Another test deals with eleusine indica. The description is as above. The protocol:
as §1, §2, §3, §4, §5, §6, §7, §8, §9

A further test concerns setaria viridis. Briefly: Indoor virulence and combined effect, greenhouse pot test, post-emergence stem and leaf spray, fresh weight inhibition. The procedure, abridged: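 Greenhouse potted weeds sprayed post-emergence on stem and leaf at 3–4 leaf stage, with A and B alone or mixed; acetone solutions diluted in 0.1 wt% Tween-80, solvent-emulsifier water as blank.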
The test system of another test is veronica persica. Described as above. The procedure, abridged: (§10)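 Weeds in greenhouse pots received a spray-tower treatment, either post-emergence at the 3–4 leaf (grasses) or 4–6 leaf (broadleaf) stage, or pre-emergence as a soil spray 24 h after sowing. Compounds were applied in acetone diluted with 0.1 wt% Tween-80 water, alone or mixed, in g/ha. Fresh weight inhibition was measured at 21 days, with synergy judged by Gowing expected efficacy (E−E0 >10%).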

The test system of test [2] is eclipta prostrata. The description is as above. The procedure, abridged: as §10

`CCOC(=O)C(C)(C)OC(=O)c1cc(-n2c(=O)cc(C(F)(F)F)n(C)c2=O)c(F)cc1Cl` [Compound A-250]: the “Fresh weight inhibition rate %, A single agent” value (shortened to “Fresh weight inhibition rate %”) is 52.89% with eclipta prostrata [1] (Table 28, A 5 g a.i./ha); 66.05% with eclipta prostrata [1] (Table 28, A 10 g a.i./ha); 68.5% in the test on eclipta prostrata [1] (Table 28, A 15 g a.i./ha); 78.12% in the test on eclipta prostrata [1] (Table 28, A 20 g a.i./ha); 68.96% with digitaria sanguinalis (Table 39, A 15 g a.i./ha); 75.50% with digitaria sanguinalis (Table 39, A 20 g a.i./ha). Further, the “Fresh weight inhibition rate %” value was found to be 85.50% in the test with digitaria sanguinalis (Table 39, A 25 g a.i./ha); 68.96% with digitaria sanguinalis (Table 40, A 15 g a.i./ha); 75.50% with digitaria sanguinalis (Table 40, A 20 g a.i./ha); 69.44% in the test on eleusine indica (Table 21, A 25 g a.i./ha); 90.86% in the test with eleusine indica (Table 21, A 30 g a.i./ha); 52.54% in the test with setaria viridis (Table 6, 10 g a.i./ha, post-emergence, 21 days after treatment). Besides, the “Fresh weight inhibition rate %” value was 65.7% in the test on setaria viridis (Table 6, 15 g a.i./ha, post-emergence, 21 days after treatment); 78.77% with setaria viridis (Table 6, 20 g a.i./ha, post-emergence, 21 days after treatment); 52.54% in the test on setaria viridis (Table 8, 10 g a.i./ha, post-emergence, 21 days after treatment); 65.7% in the test with setaria viridis (Table 8, 15 g a.i./ha, post-emergence, 21 days after treatment); 78.77% in the test with setaria viridis (Table 8, 20 g a.i./ha, post-emergence, 21 days after treatment); 52.54% with setaria viridis (Table 10, A 10 g a.i./ha). Besides, the “Fresh weight inhibition rate %” value in the test on setaria viridis (Table 10, A 15 g a.i./ha) was 65.7%; with setaria viridis (Table 10, A 20 g a.i./ha) it was 78.77%; in the test on veronica persica (Table 9, 10 g a.i./ha, post-emergence, 21 days after treatment), 68.79%; in the test with veronica persica (Table 9, 15 g a.i./ha, post-emergence, 21 days after treatment) it was 70.47%; in the test with veronica persica (Table 9, 20 g a.i./ha, post-emergence, 21 days after treatment), 82.86%; in the test on veronica persica (Table 23, A 5 g a.i./ha) it was 62.6%. Also, the “Fresh weight inhibition rate %” value with veronica persica (Table 23, A 10 g a.i./ha) came out at 68.79%; with veronica persica (Table 23, A 15 g a.i./ha), 70.47%; with veronica persica (Table 24, A 5 g a.i./ha), 62.6%; in the test on veronica persica (Table 24, A 10 g a.i./ha) it was 68.79%; with veronica persica (Table 24, A 15 g a.i./ha), 70.47%; in the test on veronica persica (Table 24, A 20 g a.i./ha), 82.86%. Besides, the “Fresh weight inhibition rate %” value came out at 24.6% with veronica persica (Table 26, A 2 g a.i./ha); 62.6% in the test on veronica persica (Table 26, A 5 g a.i./ha); 68.79% with veronica persica (Table 26, A 10 g a.i./ha); 70.47% in the test on veronica persica (Table 26, A 15 g a.i./ha).
On to `COCCOC(=O)C(C)(C)OC(=O)c1cc(-n2c(=O)cc(C(F)(F)F)n(C)c2=O)c(F)cc1Cl` [Compound A-273], for which the “Fresh weight inhibition rate %” value in the test on eclipta prostrata [2] (Table 11, A 2 g a.i./ha) is 28.12%; in the test on eclipta prostrata [2] (Table 11, A 4 g a.i./ha), 38.50%; in the test with eclipta prostrata [2] (Table 11, A 8 g a.i./ha) it was 46.05%; in the test with eclipta prostrata [2] (Table 11, A 16 g a.i./ha), 52.89%; with eclipta prostrata [2] (Table 12, A 4 g a.i./ha), 38.50%; in the test on eclipta prostrata [2] (Table 12, A 8 g a.i./ha), 46.05%. Also, the “Fresh weight inhibition rate %” value in the test with eclipta prostrata [2] (Table 12, A 16 g a.i./ha) stood at 52.89%; in the test with eclipta prostrata [2] (Table 42, A 2 g a.i./ha), 28.12%; with eclipta prostrata [2] (Table 42, A 4 g a.i./ha), 38.50%; with eclipta prostrata [2] (Table 42, A 8 g a.i./ha) it was 46.05%; in the test on eclipta prostrata [2] (Table 42, A 16 g a.i./ha) it was 52.89%; with eclipta prostrata [2] (Table 43, A 4 g a.i./ha), 38.50%. Also, in the test on eclipta prostrata [2] (Table 43, A 8 g a.i./ha), the “Fresh weight inhibition rate %” value amounted to 46.05%.
